For four molecules, IC50 results are on record in ChEMBL document CHEMBL1153675, “Synthesis and opioid binding properties of 2-chloroacrylamido derivatives of 7,8-dihydromorphinans” (Bioorg Med Chem Lett, 1996).

This test deals with Mu-type opioid receptor (Bos taurus, UniProt P79350). In words: Compound was tested for Inhibition of [3H]DAMGO (0.25 nM) binding to mu receptor from bovine striatal membranes.
Mu-type opioid receptor, sequence (P79350 whole entry): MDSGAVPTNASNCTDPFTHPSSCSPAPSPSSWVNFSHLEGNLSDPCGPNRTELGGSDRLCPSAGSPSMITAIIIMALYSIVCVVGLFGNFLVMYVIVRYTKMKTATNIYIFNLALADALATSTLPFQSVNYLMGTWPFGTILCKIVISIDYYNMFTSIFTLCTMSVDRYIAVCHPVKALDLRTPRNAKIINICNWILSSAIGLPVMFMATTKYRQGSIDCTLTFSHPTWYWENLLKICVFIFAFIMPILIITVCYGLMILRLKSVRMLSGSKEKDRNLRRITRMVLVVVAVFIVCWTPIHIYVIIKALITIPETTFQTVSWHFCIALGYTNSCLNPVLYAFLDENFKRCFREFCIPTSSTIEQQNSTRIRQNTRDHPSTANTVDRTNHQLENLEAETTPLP
The IC50 is the midpoint of a concentration-inhibition curve. The low end stands for higher potency, the high end for lower potency. With `C=C(Cl)C(=O)N[C@@]12CCC(=O)[C@@H]3Oc4c(O)ccc5c4C31CCN(CC1CC1)C2C5` (some centres undefined), the half-inhibitory concentration (IC50) turned out to be 23.5 nM. Turning to `C=C(Cl)C(=O)N[C@@H]1CCC2C3Cc4ccc(O)c5c4C2(CCN3CC2CC2)[C@H]1O5` (some centres undefined), the concentration for half-maximal inhibition (IC50) came out at 0.21 nM. For `C=C(Cl)C(=O)N[C@@]12CCC(=O)[C@@H]3Oc4c(O)ccc5c4C31CCN(C)C2C5` (some centres undefined), the IC50 was found to be 5.8 nM. In the case of `C=C(Cl)C(=O)N[C@@H]1CCC2C3Cc4ccc(O)c5c4C2(CCN3C)[C@H]1O5` (some centres undefined), the IC50 was determined as 0.56 nM.
